Results as given in patent US20240208905A1, “ABIRATERONE DERIVATIVE, PREPARATION AND APPLICATION THEREOF” (GUANGDONG ZHONGKE MEDICINE R&D LTD., priority 2021, published 2024).
Where two headings read alike, the source gives them in different places.

Tests used:
[1] = test system: experimental rabbit ear acne; assay: Pharmacodynamics evaluation of acne: coal tar rabbit ear acne model, HE pathology; type: in vivo, Japanese big-ear white rabbits; conditions: 0.01% ointment, 1 g per animal, once a day, two weeks, 10 rabbits per group; for Degree of keratinization: number of rabbits graded + / Degree of keratinization: number of rabbits graded ++ / Degree of keratinization: number of rabbits graded +++ / Degree of keratinization: number of rabbits graded −: hair follicle keratinization
Excerpt: There are 140 male healthy Japanese big-ear white rabbits, weighing 2.0-2.5 kg. After one week of adaptive rearing, 10 rabbits were randomly selected according to their body weights as the normal control group, and the remaining 130 rabbits were coated with coal tar once a day in the area of 2×2 cm2 at 2 cm outside the opening of ear canal, with a thickness of about 0.5 mm (Before coating, the coal tar was heated to melt in a water bath, and the last coal tar shell was removed before each application; the rabbits in normal control group were coated with olive oil by the same method as before). After 3 weeks for modeling, according to the degree of skin lesion, 130 rabbits were randomly divided into 13 groups which is model control group, Example 1 compound (1 group), Example 2 compound (2 groups), Example 3 compound (3 groups), Example 4 (4 groups), Example 5 (5 groups), Example 6 (6 groups), Example 7 (7 groups), Example 8 (8 groups), Example 9 (9 groups), Example 10 (10 groups), Example 11 (11 groups), Example 12 (12 groups), Example 13 (13 groups), and each group had 10 rabbits. After grouping, each dose group were continued to be coated coal tar in the morning, and after the coal tar was removed in the afternoon, apply the test drug or control drug (both 0.01%/10 g ointment, apply 1 g ointment per animal) on the lesion, once a day, for two consecutive weeks (the model control group and the normal control group were coated with the same amount of matrix). 24 hours after the last administration, the animals were sacrificed by air embolism, and the skin (full thickness) of the ear where the administration was administered was taken, fixed with 4% paraformaldehyde solution, stained with HE, and routinely observed for pathology.1.

[2] = test system: human prostate cancer cell VCaP nude mouse transplanted tumor model; assay: Prostate tumor pharmacodynamics experiment: VCaP nude mouse transplanted tumor model; type: in vivo, BALB/c nude mice; conditions: for inhibition in vivo at 500 µmol/kg: Mus musculus, VCaP, po, 600 h, read-out: Growth Inhibition rate (GI); for Tumor volume, day 25: n=6, * P<0.05, ** P<0.01 vs solvent control
Description: Male BALB/c nude mice (number: 90; age: 6-7 weeks) purchased from Beijing Vital River Laboratory Animal Technology Co., Ltd., were raised in the SPF animal room of Suzhou Shengsu New Drug Development Co., Ltd. at a temperature of 20˜25° C. and a relative humidity 40%˜70%, and bright and dark illumination for 12 hours respectively; these mice were allowed to drink and eat freely. After normal feeding for about 6 days, mice with good physical signs can be selected for this experiment after veterinary inspection. Before grouping, animals were identified at their base of tail using marking pens. After grouping, each animal was identified by ear clipping.
Human prostate cancer cells VCaP were obtained from the Shanghai Cell Bank of the Chinese Academy of Sciences (CAS, cryopreserved in liquid nitrogen in our laboratory).
Under a culture condition of 5% CO2 and 37° C., VCaP cells were routinely cultured in DMEM medium containing 10% fetal bovine serum. Digested with 0.25% trypsin and passaged, VCaP cells were passaged 2-3 times per week based on cell growth, with a passage ratio of 1:3 to 1:5.
The VCaP cells in logarithmic growth phase were collected, counted, and resuspended in 50% DMEM basal medium and 50% Matrigel Matrix, and the cell concentration was adjust to 5×10^7 cells/mL; the cells was placed in an ice box; Cell suspension was aspirated with a 1 ml syringe, and injected subcutaneously to the anterior right armpit of nude mice. Each animal was inoculated with 200 μL (1×10^7 cells/mouse), and a VCaP transplant tumor model in nude mice was established. Regularly observe the status of mice, measure the diameter of the tumor with an electronic vernier caliper, input the data into Excel spreadsheets, calculate the tumor volume, and monitor its growth. When the tumor volume reached 100-300 mm3, 60 mice with good health and similar tumor volume were selected, and divided into 10 groups (n=6) based on the tumor volume using random block method, while ensuring that the average body weight of each group remained consistent as much as possible. The day of grouping was taken as the first day of the experiment (D1). The tumor diameters were measured twice a week after the initiation of the experiment, the tumor volumes were calculated, and the body weights of the animals were weighed and recorded at the same time.
Preparation of DMSO&PEG400&PG (v:v:v, 10:60:30): appropriate volumes of DMSO, PEG400 and PG were drawed respectively, and mixed well. The ratio of DMSO, PEG400 and PG in the mixture is 10:60:30 (v:v:v), and this mixture is used as a blank solvent and stored at room temperature.
Appropriate amount of the test compound was weighed and added into a glass bottle, appropriate volume of solvent DMSO was added, be treated with vortex ultrasonication, then appropriate volumes of PEG400 and PG were added in turn, be vortex mixed to obtain a dosing formulation with a final concentration of 0.05M. The dosing formulation was stored in refrigerator at 2-8° C. after subpackaging, and was stirred evenly with vortex before each administration. The dosing formulation was prepared every 7 days, and was subpackaged and stored in refrigerator at 4° C.
Appropriate amount of ZONK1901-10 was weighed and added into a glass bottle, appropriate volume of corn oil, was added, be treated with vortex ultrasonication evenly, a dosing formulation with a final concentration of 19.58 mg·mL-1 (0.05 M) was obtained.

[3] = day 25, 0.5 mmol·kg−1 i.g. QD, vs solvent control

Row | SMILES | degree of inflammatory cell infiltration: number of rabbits graded + [1] | degree of inflammatory cell infiltration: number of rabbits graded ++ [1] | degree of inflammatory cell infiltration: number of rabbits graded +++ [1] | degree of inflammatory cell infiltration: number of rabbits graded − [1] | Degree of keratinization: number of rabbits graded + [1] | Degree of keratinization: number of rabbits graded ++ [1] | Degree of keratinization: number of rabbits graded +++ [1] | Degree of keratinization: number of rabbits graded − [1] | inhibition in vivo at 500 µmol/kg [2] [%] | Tumor volume, day 25 ([2]; day 25, 0.5 mmol·kg−1 i.g. QD) | inhibition in vivo at 500 µmol/kg [2, 3] [%]
1 | C[C@]12CCC(=NOC(=O)C3CCNCC3)C=C1CC[C@H]1[C@@H]2CC[C@]2(C)C(c3cccnc3)=CC[C@@H]12 [Example 10, (8S,9S,10R,13S,14S)-10,13-Dimethyl-17-(pyridin-3-yl) -6,7,8,9,10,11,12,13,14,15-decahydro-1H-cyclopenta[a]phenanthrenyl-3(2H)-one O-piperidine-4-carbonyl oxime] | 5 | 3 | 2 | 0 | 6 | 3 | 0 | 1 | – | – | –
2 | CN1CCC(C(=O)ON=C2C=C3CC[C@H]4[C@H](CC[C@]5(C)C(c6cccnc6)=CC[C@@H]45)[C@@]3(C)CC2)CC1 [Example 11, (8S,9S,10R,13S,14S)-10,13-Dimethyl-17-(pyridin-3-yl) -6,7,8,9,10,11,12,13,14,15-decahydro-1H-cyclopenta[a]phenanthrenyl-3(2H)-one O-(1-methylpiperidine-4-carbonyl)oxime] | 6 | 3 | 1 | 0 | 7 | 3 | 0 | 0 | – | – | –
3 | C[C@]12CCC(=NOC(=O)N(CCCl)CCCl)C=C1CC[C@H]1[C@@H]2CC[C@]2(C)C(c3cccnc3)=CC[C@@H]12 [Example 3, (8S,9S,10R,13S,14S)-10,13-Dimethyl-17-(pyridin-3-yl) -6,7,8,9,10,11,12,13,14,15-decahydro-1H-cyclopenta[a]phenanthrenyl-3(2H)-one O-(bis(2-chloroethyl)carbamoyl)oxime] | 5 | 4 | 1 | 0 | 6 | 4 | 0 | 0 | 71.2 | 478 ± 64 ** mm3 | –
4 | C[C@]12CCC(=NOC(=O)OCCN3CCOCC3)C=C1CC[C@H]1[C@@H]2CC[C@]2(C)C(c3cccnc3)=CC[C@@H]12 [Example 9] | 5 | 4 | 1 | 0 | 6 | 4 | 0 | 0 | – | – | –
5 | CC(=O)N1CCC(C(=O)ON=C2C=C3CC[C@H]4[C@H](CC[C@]5(C)C(c6cccnc6)=CC[C@@H]45)[C@@]3(C)CC2)CC1 [Example 12, 1-(4-(((((8S,9S,10R,13S,14S)-10,13-dimethyl-17-(pyridin-3-yl) -7,8,9,11,12,13,14,15-octahydro-1H-cyclopenteno[a]phenanthrenyl-3(2H,6H, 10H) -ylidene)amino)oxy)carbonyl)piperidin-1-yl)ethanone] | 5 | 4 | 1 | 0 | 5 | 5 | 0 | 0 | – | – | –
6 | CC(=O)ON=C1C=C2CC[C@H]3[C@H](CC[C@]4(C)C(c5cccnc5)=CC[C@@H]34)[C@@]2(C)CC1 [H] | – | – | – | – | – | – | – | – | – | – | 69.3
7 | CN(C)CCN1CCC(C(=O)ON=C2C=C3CC[C@H]4[C@H](CC[C@]5(C)C(c6cccnc6)=CC[C@@H]45)[C@@]3(C)CC2)CC1 [Example 13, (8S,9S,10R,13S,14S)-10,13-Dimethyl-17-(pyridin-3-yl) -6,7,8,9,10,11,12,13,14,15-decahydro-1H-cyclopenta[a]phenanthrenyl-3(2H)-one O-(1-(2-(dimethylamino)ethyl)piperidine-4-carbonyl)oxime] | 6 | 3 | 1 | 0 | 4 | 6 | 0 | 0 | – | – | –
8 | Cc1ccccc1C(=O)ON=C1C=C2CC[C@H]3[C@H](CC[C@]4(C)C(c5cccnc5)=CC[C@@H]34)[C@@]2(C)CC1 [Example 5, (8S,9S,10R,13S,14S)-10,13-Dimethyl-17-(pyridin-3-yl) -6,7,8,9,10,11,12,13,14,15-decahydro-1H-cyclopenta[a]phenanthrenyl-3(2H)-one O-(2-methylbenzoyl)oxime] | 6 | 3 | 1 | 0 | 6 | 4 | 0 | 0 | – | 410 ± 44 ** mm3 | 85.2
9 | CC(C)C(=O)OCOC(=O)ON=C1C=C2CC[C@H]3[C@H](CC[C@]4(C)C(c5cccnc5)=CC[C@@H]34)[C@@]2(C)CC1 [Example 8, ((((((8S,9S,10R,13S,14S)-10,13-dimethyl-17-(pyridin-3-yl) -7,8,9,11,12,13,14,15-octahydro-1H-cyclopenta[a]phenanthrenyl-3(2H,6H,10H) -ylidene)amino)oxy)carbonyl)oxy)methyl isobutyrate] | 4 | 4 | 2 | 0 | 5 | 5 | 0 | 0 | – | – | –
10 | CN(C)CCNC(=O)ON=C1C=C2CC[C@H]3[C@H](CC[C@]4(C)C(c5cccnc5)=CC[C@@H]34)[C@@]2(C)CC1 [Example 1, (8S,9S,10R,13S,14S)-10, 13-Dimethyl-17-(pyridin-3-yl) -6,7,8,9,10,11,12,13,14,15-decahydro-1H-cyclopenteno[a]phenanthrene-3(2H)-one O-((2-(dimethylamino)ethyl)carbamoyl)oxime] | 5 | 3 | 2 | 0 | 6 | 4 | 0 | 0 | – | 384 ± 32 ** mm3 | 82.2
11 | CC(=O)ON=C1C=C2CC[C@H]3[C@H](CC[C@]4(C)C(c5cccnc5)=CC[C@@H]34)[C@@]2(C)CC1 [Example 7, (8S,9S,10R,13S,14S)-10,13-Dimethyl-17-(pyridin-3-yl) -6,7,8,9,10,11,12,13,14,15-decahydro-1H-cyclopenta[a]phenanthrenyl-3(2H)-one O-acetyloxime] | 5 | 3 | 2 | 0 | 6 | 4 | 0 | 0 | – | – | –
12 | CCC(=O)O/N=C1/C=C2CC[C@H]3[C@H](CC[C@]4(C)C(c5cccnc5)=CC[C@@H]34)[C@@]2(C)CC1 [ZONK1901-19, reference compound] | – | – | – | – | – | – | – | – | – | 790 ± 49 * mm3 | 38.7
